Two molecules from US20230139328A1, “DOSAGE FORMS FOR IMPROVING ORGAN TRANSPLANTATION, GRAFT VERSUS HOST DISEASE AND STEM CELLS TRANSPLANTS” (Aphios Corporation, priority 2020, published 2023) can be followed below.

“Also recorded” adds a separate entry of the source.

Holding throughout (type): cell-based, human
In series [1] the test system is neutrophil migration across HUVECs. Briefly: Time course of LTB4 induced neutrophil migration across HUVECs. As to conditions: single 1 h 100 nM pretreatment, washed, tested at 0, 24, 48 h. The protocol:
Time Course Assays: At confluency, HUVECs were treated for 1 h at 37° C. with Bryostatin-1 (10 nM, 100 nM) in EGM or EGM alone. Inserts were washed three times with HBSS (to reduce drug effects on the neutrophils) and migration assays were ran at t=0, 24, or 48 h. After time elapsed, HUVECs were placed in a new plate containing either 500 μL 100 nM LTB4 or HBSS alone for control. 500 μL HBSS was then added to the top well and spiked with 500,000 neutrophils. Neutrophils were allowed to migrate for 3 h at 37° C. Migration was stopped by removing the inserts and migration was measured using the MPO assay.
Myeloperoxidase Assay: Neutrophil migration was measured using myeloperoxidase (MPO) analysis. Cell culture inserts were first removed, and plates were spun at 1,500 RPM for 5 min. The supernatant was removed, and MPO activity was measured using TMB/peroxide as chromogen. The reaction was stopped with sulfuric acid and absorbance was read at 450 nm using a microplate reader. All experiments were performed n=6. Data was expressed as “% neutrophil migration”, which allowed cumulative statistical analysis to be done and account for unpreventable batch-to-batch variations.

The subject of series [2] is neutrophil migration across confluent HMECs. Briefly: LTB4 induced neutrophil migration across HMEC monolayers (transwell, MPO assay). As to conditions: for effect on LTB4 induced neutrophil migration at 1 nM / effect on LTB4 induced neutrophil TEM at higher doses (100 nM): 1 h pretreatment, 100 nM LTB4; for effect on LTB4 induced neutrophil migration (dose response): 1 h pretreatment at 1-100 nM, 100 nM LTB4, 3 h migration. The protocol:
FIG. 6 graphically depicts protection against LTB4 induced PMN TEM with PMA up to 48 h after pretreatment. HMECs were pretreated for 1 h with PMA and washed with HBSS three times to remove PMA prior to replacement of culture medium. Neutrophil migration studies were then performed at 0, 24, or 48 hours. Migration was stimulated by adding 500,000 neutrophils to the top well and 100 nM LTB4 to the lower well at 0, 24, and 48 hours after PMA pretreatment. […] PMA (100 nM, (10^−7M) reduced LTB4 induced migration up to 48 hours after 1 h of endothelial-specific pretreatment (***p<0.001).
Referring now to FIG. 7, FIG. 7 graphically depicts protection from LTB4 induced PMN TEM with Bryostatin-1 up to 48 hours after pretreatment. HMECs were pretreated for 1 h with Bryostatin-1 and washed with HBSS three times to remove Bryostatin-1 prior to replacement of culture medium. Neutrophil migration studies were then performed at 0, 24, or 48 hours. Migration was stimulated by adding 500,000 neutrophils to the top well and 100 nM LTB4 to the lower well at 0, 24, and 48 hours after Bryostatin-1 pretreatment. […] Bryostatin-1 (100 nM) reduced LTB4 induced migration up to 48 hours after 1-hour endothelial pretreatment (***p<0.001).
Cell Culture: HMECs were a generous gift from Dr. Francisco Candal (Centers for Disease Control), and are derived from the subcutaneous microvasculature. HMECs were maintained in MCDB-131 supplemented with 10% FCS, 1% antibiotic antimycotic, 10 ng/ml EGF, and […] hydrocortisone. The cell cultures were incubated at 37° C. in a humidified atmosphere with 7.5% CO2 and expanded by brief trypsinization (0.25% trypsin in phosphate-buffered saline containing 0.02% EDTA). HMECs were seeded onto 8 μm inserts for migration assays and 48-well plates for endothelial viability studies. Human umbilical vein endothelial cells (HUVECs) were harvested from umbilical cords by 0.25% collagenase treatment for 20 min at 37° C. HUVECs were maintained in Endothelial Growth Medium (EGM) supplemented with Bovine Brain Extract. The cell cultures were incubated at 37° C. in a 100% humidified atmosphere with 5% C02 and expanded by brief trypsinization. Primary passage HUVEC were seeded onto fibronectin coated (25 μg/ml)8 μm inserts for migration assays and 48-well plates for endothelial viability studies. Culture medium was replaced every second day. Cells were identified as endothelial cells by their cobblestone appearance at confluency, positive labeling with acetylated low density lipoprotein labeled with 1,11-dioctadecyl-1 3,3,31,31,3-tetramethylindocarbocyanine perchlorate (Dil-Ac-LDL; Biomedical Technologies, Inc.) and mouse antihuman factor […] (Calbiochem, San Diego, Calif.).
Neutrophil Isolation: Neutrophils were isolated using a Ficoll gradient. Whole blood was taken from human donors, and 5 ml was layered on top of two layers of Histopaque. Tubes were spun at 2,100 rpm for 40 min. The neutrophil layer was added to cold PBS and re-spun at 2,100 rpm for 5 min. Supernatant was removed and neutrophils were suspended in a fixed amount of PBS to determine cell count. Cells were kept on ice until assays were performed.
[…] Inserts were washed three times with Hank's Balanced Salt Solution (HBSS) (to eliminate drug effects on the neutrophils) and placed in a new plate containing either 500 μL 100 nM LTB4, or HBSS alone for control. 500 μL HBSS was then added to the top well and spiked with 500,000 neutrophils. For TNF-α experiments, HMECs were left in 20 ng/ml TNF-α in MCDB-131 for 24 h TNF-α was removed and HMECs washed three times. […] The drug was removed, and cells were washed three times. 500 μL HBSS was added to both upper and lower chambers and spiked with 500,000 neutrophils. Neutrophils were allowed to migrate for 3 h at 37° C. Migration was stopped by removing the inserts and migration was measured using the myeloperoxidase (MPO) assay.
Myeloperoxidase Assay: Neutrophil migration was measured using myeloperoxidase (MPO) analysis. […]

A further series deals with neutrophil migration. Briefly: Neutrophil migration induced by 24 h TNF-α pretreatment combined with a 100 nM LTB4 gradient. As to conditions: 24 h TNF-α pretreatment and 100 nM LTB4 gradient; data not shown. The protocol: Migration Assays: At confluency HMECs were treated for 1 h at 37° C. with Bryostatin-1 (10 nM, 100 nM) in MCDB-131 media or MCDB-131 media alone. Inserts were washed three times with Hank's Balanced Salt Solution (HBSS) (to eliminate drug effects on the neutrophils) and placed in a new plate containing either 500 μL 100 nM LTB4, or HBSS alone for control. 500 μL HBSS was then added to the top well and spiked with 500,000 neutrophils. For TNF-α experiments, HMECs were left in 20 ng/ml TNF-α in MCDB-131 for 24 h TNF-α was removed and HMECs washed three times. HMECs were treated for 1 h with Bryostatin-1 in endothelial growth medium (EGM) (10 nM, 100 nM). The drug was removed, and cells were washed three times. […] Neutrophils were allowed to migrate for 3 h at 37° C. Migration was stopped by removing the inserts and migration was measured using the myeloperoxidase (MPO) assay.
Myeloperoxidase Assay: Neutrophil migration was measured using myeloperoxidase (MPO) analysis. […] The supernatant was removed, and MPO activity was measured using TMB/peroxide as chromogen. The reaction was stopped with sulfuric acid and absorbance was read at 450 nm using a microplate reader. […] Data was expressed as “% neutrophil migration”, which allowed cumulative statistical analysis to be done and account for unpreventable batch-to-batch variations.

In a further series the test system is HMEC. Briefly: Alamar blue endothelial viability assay, HMEC. As to conditions: single 1 h 100 nM treatment; 1, 24, 48 h. The protocol:
Viability Assay. The Alamar blue assay was used to determine endothelial viability after pharmacological intervention. Alamar blue contains a REDOX indicator that results in a color change upon chemical reduction by cellular metabolic activity. Endothelial cells were treated with Bryostatin-1 (100 nM) for 1 h and washed three times with HBSS. Alamar blue (10%) in media was added for 2.5 h at T=0, 24, or 48 hours after drug treatment and the ratio of absorbances (570-600 nm) was measured to determine metabolic activity.

As for `CCC/C=C/C=C/C(=O)O[C@H]1/C(=C/C(=O)OC)C[C@H]2C[C@H]([C@@H](C)O)OC(=O)C[C@H](O)C[C@@H]3C[C@H](OC(C)=O)C(C)(C)[C@](O)(C[C@@H]4C/C(=C/C(=O)OC)C[C@H](/C=C/C(C)(C)[C@]1(O)O2)O4)O3` [Bryostatin-1], the “time after pretreatment for which reduction of LTB4 induced migration is maintained, HUVECs” value in series [1] was 48 h. In series [2], the “effect on LTB4 induced neutrophil migration at 1 nM” value is reported as “did not reduce PMN TEM”, the “effect on LTB4 induced neutrophil TEM at higher doses (100 nM)” value is “attenuated neutrophil TEM to levels below that of basal migration” and the “effect on LTB4 induced neutrophil migration (dose response)” value is reported as “dose-dependently reduced; also recorded: reduced LTB4 induced migration in a dose dependent manner”. For the same molecule, the “time after pretreatment for which reduction of LTB4 induced migration is maintained, HMECs” value in series [2] (single 1 h 100 nM pretreatment, washed, tested at 0, 24, 48 h) is recorded as 48 h. Further, the “effect on migration induced by TNF-α pretreatment plus LTB4 gradient” value with neutrophil migration is on record as “reduced migration”. In addition, the HMEC viability entry in the series with HMEC is “no effect”.

`CCCCCCCCCCCCCC(=O)O[C@@H]1[C@@H](C)[C@@]2(O)[C@@H](C=C(CO)C[C@]3(O)C(=O)C(C)=C[C@@H]23)[C@@H]2C(C)(C)[C@]12OC(C)=O` [PMA, phorbol myristate acetate]: the “time after pretreatment for which reduction of LTB4 induced migration is maintained, HUVECs” value in series [1] is “up to 48 h”. Moreover, in series [2], the “effect on LTB4 induced neutrophil migration at 1 nM” value is reported as “did not reduce PMN TEM; also recorded: had no effect”, the “effect on LTB4 induced neutrophil TEM at higher doses (100 nM)” value was “attenuated neutrophil TEM to levels below that of basal migration” and the “effect on LTB4 induced neutrophil migration (dose response)” value is “dose-dependently reduced; also recorded: reduced LTB4 induced migration in a dose dependent manner”. Further, the “effect on migration induced by TNF-α pretreatment plus LTB4 gradient” value with neutrophil migration is given as “reduced migration”. Moreover, in the series on HMEC, the HMEC viability result is on record as “no effect”.
